Test results from US10610520B2, “Heterocyclic compound” (Takeda Pharmaceutical Company Limited, priority 2016, dated 2020).

target: T1, His-hMAGL (recombinant polyhistidine tagged human MAGL protein) (Homo sapiens, UniProt Q99685); test: Measurement of MAGL inhibitory activity (arachidonic acid production from 2-arachidonylglycerol, RapidFire-mass spectrometry); type: biochemical; conditions: MAGL inhibitory rate, test compound 10 μM, 60 min preincubation, 2-arachidonylglycerol substrate
T1 construct: made in house; host or cells: E. coli BL21(DE3)
T1 sequence (Q99685 1-303): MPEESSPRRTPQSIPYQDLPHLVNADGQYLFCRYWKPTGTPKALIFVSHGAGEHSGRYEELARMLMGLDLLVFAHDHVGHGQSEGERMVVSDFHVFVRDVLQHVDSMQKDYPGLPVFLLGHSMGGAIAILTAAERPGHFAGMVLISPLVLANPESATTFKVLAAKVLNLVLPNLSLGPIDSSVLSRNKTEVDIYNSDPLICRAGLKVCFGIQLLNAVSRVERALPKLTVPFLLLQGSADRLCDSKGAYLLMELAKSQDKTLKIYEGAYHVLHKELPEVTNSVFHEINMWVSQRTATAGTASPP
Procedure: The His-hMAGL obtained above was diluted with enzyme reaction buffer (10 mM Tris-HCl, pH 7.5, 1 mM EDTA, 0.025 (w/v) % Triton X-100, 0.01% Bovine serum albumin) to a concentration of 7.5 ng/mL. […] Thereafter, to each well was added 5 μL of 150 μM 2-arachidonylglycerol (Tocris Bioscience), and the mixture was incubated at room temperature for 10 min. Then, 10 μL of 2% formic acid (Wako Pure Chemical Industries, Ltd.) was added to stop the reaction. Furthermore, acetonitrile (50 μL) containing 3 μM arachidonic acid-d8 (Cayman Chemical Company) was added and the mixture was stirred.
The amount of arachidonic acid in the obtained enzyme reaction mixture was calculated by measuring by RapidFire-mass spectrometry and correcting by the amount of arachidonic acid-d8. High Throughput online solid phase extraction was performed using RapidFire 300™ system (Agilent Technologies, Inc.). Samples were loaded on SPE C4 cartridge (Agilent Technologies, Inc.) and desalted with 0.2 (v/v) % acetic acid (Wako Pure Chemical Industries, Ltd.) in ultrapure water/acetonitrile (70/30, v/v) at a flow rate of 1.5 mL/min, eluted at a flow rate of 0.5 mL/min with 0.2 (v/v) % acetic acid dissolved in acetonitrile/ultrapure water (90/10, v/v), and injected into the mass spectrometry part. The injection needle was washed with ultrapure water (500 millisecond) and acetonitrile (500 millisecond) to minimize carry-over. […] The RapidFire300 system was controlled by RapidFire UI software version 3.6 (Agilent Technologies, Inc.).
The mass spectrometry of the resultant product was performed using API4000™ triple quadrupole mass spectrometer (AB SCIEX) equipped with an electrospray ion sauce (TurboIon Spray™) in a negative selected reaction monitoring (SRM) mode. The conditions of SRM are shown below. The parameters of the instrument were optimized as follows: capillary temperature 600° C., ion spray voltage −4.5 kV, collision gas 8, curtain gas 15 psi, ion source gas 1 60 psi, ion source gas 2 60 psi. The mass spectrometer was controlled by Analyst™ software version 1.5.1 (AB SCIEX). The peak area integration was analyzed using RapidFire integrator software version 3.6 (Agilent Technologies, Inc.).
MAGL inhibitory rate (%) was calculated according to the following calculation formula. (1-(arachidonic acid production amount of test compound addition group−arachidonic acid production amount of enzyme-free group)÷(arachidonic acid production amount of test compound-free group−arachidonic acid production amount of enzyme-free group))×100

inhibition at 10 µM [%] | SMILES
100 | CC1(C2CCN(C(=O)N3CC4(CCC(=O)N4)C3)CC2)Cc2ccccc2O1 (stereo not drawn) [Example 2, 2-((4-(2-methyl-2,3-dihydro-1-benzofuran-2-yl)piperidin-1-yl)carbonyl)-2,5-diazaspiro[3.4]octan-6-one]
102 | O=C1CCC2(CN(C(=O)N3CCC(COc4ccc(C(F)(F)F)cc4Cl)CC3)C2)N1 [Example 3, 2-((4-((2-chloro-4-(trifluoromethyl)phenoxy)methyl)piperidin-1-yl)carbonyl)-2,5-diazaspiro[3.4]octan-6-one]
98 | CC(Oc1ccc(F)cc1Cl)C1CN(C(=O)N2CC3(CCC(=O)N3)C2)C1 (stereo not drawn) [Example 4, 2-((3-(1-(2-chloro-4-fluorophenoxy)ethyl)azetidin-1-yl)carbonyl)-2,5-diazaspiro[3.4]octan-6-one]
99 | O=C1CCC2(CN(C(=O)c3ccc(COc4ccccc4C(F)(F)F)cc3)C2)N1 [Example 5, 2-(4-((2-(trifluoromethyl)phenoxy)methyl)benzoyl)-2,5-diazaspiro[3.4]octan-6-one]
87 | O=C1CCC2(CN(C(=O)c3ccc(OCc4ccccc4)cc3)C2)N1 [Example 6, 2-(4-(benzyloxy)benzoyl)-2,5-diazaspiro[3.4]octan-6-one]
103 | CC(Oc1ccc(F)cc1Cl)C1CCN(C(=O)N2CC3(CCC(=O)N3)C2)CC1 (stereo not drawn) [Example 7, 2-((4-(1-(2-chloro-4-fluorophenoxy)ethyl)piperidin-1-yl)carbonyl)-2,5-diazaspiro[3.4]octan-6-one]
100 | O=C1CCC2(CN(C(=O)N3CC(COc4ccc(C(F)(F)F)cc4F)C3)C2)N1 [Example 8, 2-((3-((2-fluoro-4-(trifluoromethyl)phenoxy)methyl)azetidin-1-yl)carbonyl)-2,5-diazaspiro[3.4]octan-6-one]
98 | O=C1CCC2(CN(C(=O)N3CC(OCc4ccc(C(F)(F)F)cc4F)C3)C2)N1 [Example 9, 2-((3-((2-fluoro-4-(trifluoromethyl)benzyl)oxy)azetidin-1-yl)carbonyl)-2,5-diazaspiro[3.4]octan-6-one]
101 | CC(Oc1ccc(C(F)(F)F)cc1F)C1CN(C(=O)N2CC3(CCC(=O)N3)C2)C1 (stereo not drawn) [Example 10, 2-((3-(1-(2-fluoro-4-(trifluoromethyl)phenoxy)ethyl)azetidin-1-yl)carbonyl)-2,5-diazaspiro[3.4]octan-6-one]
92 | O=C1CCC2(CN(C(=O)c3ccc(-c4ccccc4)cc3)C2)N1 [Example 12, 2-(biphenyl-4-ylcarbonyl)-2,5-diazaspiro[3.4]octan-6-one]
89 | O=C1CCC2(CN(C(=O)c3ccc4nc(-c5ccc(F)cc5)oc4c3)C2)N1 [Example 13, 2-((2-(4-fluorophenyl)-1,3-benzoxazol-6-yl)carbonyl)-2,5-diazaspiro[3.4]octan-6-one]
96 | O=C1CCC2(CN(C(=O)c3ccc4c(ccn4-c4ccc(C(F)(F)F)cn4)c3)C2)N1 [Example 14, 2-((1-(5-(trifluoromethyl)pyridin-2-yl)-1H-indol-5-yl)carbonyl)-2,5-diazaspiro[3.4]octan-6-one]
104 | O=C1CCC2(CN(C(=O)N3CC(COc4ccc(Br)cc4F)C3)C2)N1 [Example 16, 2-((3-((4-bromo-2-fluorophenoxy)methyl)azetidin-1-yl)carbonyl)-2,5-diazaspiro[3.4]octan-6-one]
98 | O=C1CCC2(CN(C(=O)N3CC(COc4ccc(C(F)(F)F)cc4Cl)C3)C2)N1 [Example 17, 2-((3-((2-chloro-4-(trifluoromethyl)phenoxy)methyl)azetidin-1-yl)carbonyl)-2,5-diazaspiro[3.4]octan-6-one]
100 | O=C1CCC2(CN(C(=O)N3CC(COc4ccc5c(c4)CCCC5)C3)C2)N1 [Example 18, 2-((3-((5,6,7,8-tetrahydronaphthalen-2-yloxy)methyl)azetidin-1-yl)carbonyl)-2,5-diazaspiro[3.4]octan-6-one]
102 | O=C1CCC2(CN(C(=O)N3CC(COc4ccc5c(c4)CCC5)C3)C2)N1 [Example 19, 2-((3-((2,3-dihydro-1H-inden-5-yloxy)methyl)azetidin-1-yl)carbonyl)-2,5-diazaspiro[3.4]octan-6-one]
104 | O=C1CCC2(CN(C(=O)c3sc4cc(C(F)(F)F)ccc4c3Cl)C2)N1 [Example 20, 2-((3-chloro-6-(trifluoromethyl)-1-benzothiophen-2-yl)carbonyl)-2,5-diazaspiro[3.4]octan-6-one]
102 | Cc1ccc(OCC2CN(C(=O)N3CC4(CCC(=O)N4)C3)C2)c(Cl)c1 [Example 21, 2-((3-((2-chloro-4-methylphenoxy)methyl)azetidin-1-yl)carbonyl)-2,5-diazaspiro[3.4]octan-6-one]
100 | O=C1CCC2(CN(C(=O)N3CC(COc4ccc(C(F)(F)F)c(F)c4)C3)C2)N1 [Example 22, 2-((3-((3-fluoro-4-(trifluoromethyl)phenoxy)methyl)azetidin-1-yl)carbonyl)-2,5-diazaspiro[3.4]octan-6-one]
102 | Cc1cc(F)ccc1-c1ccc(OCC2CN(C(=O)N3CC4(CCC(=O)N4)C3)C2)c(F)c1 [Example 23, 2-((3-(((3,4′-difluoro-2′-methylbiphenyl-4-yl)oxy)methyl)azetidin-1-yl)carbonyl)-2,5-diazaspiro[3.4]octan-6-one]
103 | O=C1CCC2(CN(C(=O)N3CC(COc4cc(Br)c(C(F)(F)F)cc4F)C3)C2)N1 [Example 24, 2-((3-((5-bromo-2-fluoro-4-(trifluoromethyl)phenoxy)methyl)azetidin-1-yl)carbonyl)-2,5-diazaspiro[3.4]octan-6-one]
91 | O=C1CCC2(CN(C(=O)[C@H]3C[C@@H](COc4ccc(F)cc4Cl)C3)C2)N1 [Example 25, 2-((cis-3-((2-chloro-4-fluorophenoxy)methyl)cyclobutyl)carbonyl)-2,5-diazaspiro[3.4]octan-6-one]
98 | O=C1CCC2(CN(C(=O)[C@H]3C[C@H](COc4ccc(F)cc4Cl)C3)C2)N1 [Example 26, 2-((trans-3-((2-chloro-4-fluorophenoxy)methyl)cyclobutyl)carbonyl)-2,5-diazaspiro[3.4]octan-6-one]
94 | O=C1CCC2(CN(C(=O)c3cccc(C(F)(F)c4ccccc4)c3)C2)N1 [Example 27, 2-(3-(difluoro(phenyl)methyl)benzoyl)-2,5-diazaspiro[3.4]octan-6-one]
97 | O=C1CCC2(CN(C(=O)c3ccc(C(F)(F)c4ccccc4)cc3)C2)N1 [Example 28, 2-(4-(difluoro(phenyl)methyl)benzoyl)-2,5-diazaspiro[3.4]octan-6-one]
98 | O=C1CCC2(CN(C(=O)N3CCC(C(F)(F)c4ccc(F)cc4)CC3)C2)N1 [Example 29, 2-((4-(difluoro(4-fluorophenyl)methyl)piperidin-1-yl)carbonyl)-2,5-diazaspiro[3.4]octan-6-one]

same assay, conditions: MAGL inhibitory rate, test compound 10 μM, 60 min preincubation, 2-arachidonylglycerol substrate; 10 µM

% inhibition (10 μM) [%] | SMILES
99 | O=C1NC2(CO1)CN(C(=O)[C@H]1C[C@@H](OCc3ccc(C(F)(F)F)cc3F)C1)C2 (stereo in doubt) [Example 355, 2-((cis-3-((2-fluoro-4-(trifluoromethyl)benzyl)oxy)cyclobutyl)carbonyl)-7-oxa-2,5-diazaspiro[3.4]octan-6-one]
